This experiment in a line: Photocytotoxicity against human Ec9706 cells after 2.5 hrs irradiation measured after 24 hrs incubation in dark by MTT assay. It counts as functional.

With `N[C@@H](Cc1ccccc1)C(=O)Nc1ccc(-c2c3nc(c(-c4ccc(NC(=O)[C@@H](N)Cc5ccccc5)cc4)c4ccc([nH]4)c(-c4ccccc4)c4nc(c(-c5ccccc5)c5ccc2[nH]5)C=C4)C=C3)cc1`, the “inhibition (INH)” value was determined as 96.13%.
The figure for `O=C(Cn1cc(F)c(=O)[nH]c1=O)Nc1ccc(-c2c3nc(c(-c4ccc(NC(=O)Cn5cc(F)c(=O)[nH]c5=O)cc4)c4ccc([nH]4)c(-c4ccccc4)c4nc(c(-c5ccccc5)c5ccc2[nH]5)C=C4)C=C3)cc1` is 100%; for `CC(C)(C)OC(=O)N[C@@H](Cc1ccccc1)C(=O)Nc1ccc(-c2c3nc(c(-c4ccc(NC(=O)[C@H](Cc5ccccc5)NC(=O)OC(C)(C)C)cc4)c4ccc([nH]4)c(-c4ccccc4)c4nc(c(-c5ccccc5)c5ccc2[nH]5)C=C4)C=C3)cc1` it is 100%.
The figure for `Nc1ccc(-c2c3nc(c(-c4ccc(N)cc4)c4ccc([nH]4)c(-c4ccccc4)c4nc(c(-c5ccccc5)c5ccc2[nH]5)C=C4)C=C3)cc1` is 66.6%.
The result for `Nc1ccc(-c2c3nc(c(-c4ccc(NC(=O)[C@@H](N)Cc5ccccc5)cc4)c4ccc([nH]4)c(-c4ccccc4)c4nc(c(-c5ccccc5)c5ccc2[nH]5)C=C4)C=C3)cc1` reads 37.94%; that for `N[C@@H](Cc1ccccc1)C(=O)Nc1ccc(-c2c3nc(c(-c4ccc(NC(=O)Cn5cc(F)c(=O)[nH]c5=O)cc4)c4ccc([nH]4)c(-c4ccccc4)c4nc(c(-c5ccccc5)c5ccc2[nH]5)C=C4)C=C3)cc1`, 69.45%; that for `Nc1ccc(-c2c3nc(c(-c4ccc(NC(=O)Cn5cc(F)c(=O)[nH]c5=O)cc4)c4ccc([nH]4)c(-c4ccccc4)c4nc(c(-c5ccccc5)c5ccc2[nH]5)C=C4)C=C3)cc1`, 97.09%.
In the case of `CC(C)(C)OC(=O)N[C@@H](Cc1ccccc1)C(=O)Nc1ccc(-c2c3nc(c(-c4ccc(NC(=O)Cn5cc(F)c(=O)[nH]c5=O)cc4)c4ccc([nH]4)c(-c4ccccc4)c4nc(c(-c5ccccc5)c5ccc2[nH]5)C=C4)C=C3)cc1`, the “inhibition (INH)” value was 88.65%.
As for `CC(C)(C)OC(=O)N[C@@H](Cc1ccccc1)C(=O)Nc1ccc(-c2c3nc(c(-c4ccc(N)cc4)c4ccc([nH]4)c(-c4ccccc4)c4nc(c(-c5ccccc5)c5ccc2[nH]5)C=C4)C=C3)cc1`, the “inhibition (INH)” value worked out at 47.21%.
